The values below come from patent publication US4125607A, “Daunosaminyl anthracyclinones and their use” (Societa' Farmaceutici Italia S.p.A., priority 1975, dated 1978).

Each structure is given as a SMILES string. Values after ≈ are worked out from the molar mass of the structure shown. Read-outs that look alike come from different tables or passages of the source.

One series relates to L1210 leukemia. Description: Activity on L1210 leukemia in BDF1 mice (Table 4). The class given is in vivo. The method, then: |Activity on L1210 leukemia |BDF1 mice were injected ip with 10^5 ascites |cells on Day 0 and treated ip on Day 1.
The next series concerns HeLa cells. Description: Inhibition of colony forming ability of cultured HeLa cells in vitro. The series is classed as cell-based. As to conditions: for IC50: Homo sapiens, read-out: ID50 (50% inhibiting dose). The source says:
Biological activity on cultured HeLa cells. Data
are expressed as 50% inhibiting dose (ng/ml) at
different times of exposure.

The subject of another series is L 1210 leukemia. Description: Activity on L 1210 leukemia in BDF1 mice (Table 3). The class given is in vivo. The source says: ^1 BDF1 mice received 10^5 ascites cells ip on Day 0 - Treatment
The next series relates to Sarcoma 180 ascites. Kind of series: Antitumor activity in mice bearing Sarcoma 180 ascites, single ip treatment on day 1. The class given is in vivo. The conditions noted are these: for LTS (long term survivors) / T/C % (survival time as percentage of controls) / TOX (toxic deaths): single ip on day 1. The source says:
Antitumor activity in mice bearing Sarcoma 180 ascites;
single intraperitoneal treatment on day 1. The results
are expressed as the time of survival of treated animals
as a percentage of the controls (T/C %), the number of
long term survivors (LTS) and toxic deaths (TOX).

The test system of the next series is Gross leukemia. Kind of series: Activity on Gross leukemia in C3H/Hc mice (Table 3). The series is classed as in vivo. An excerpt:
^3 C3H/Hc mice received 2×10^6 leukemic cells iv on Day 0 -
Treatment iv on Days 1, 2, 3.

A further series has as its system P 388 leukemia. Kind of series: Activity on P 388 leukemia in BDF1 mice (Table 3). The class given is in vivo. The source says: ^2 BDF1 mice received 10^6 ascites cells ip on Day 0 - Treatment

Consider `Cc1cc2c(cc1C)C(=O)c1c(O)c3c(c(O)c1C2=O)CC(O)(C(=O)CO)CC3OC1CC(N)C(O)C(C)O1` (stereo not shown) [2,3-Dimethyl-4-demethoxy-adriamycin, 4-demethoxy-2,3-dimethyladriamycin], for which the T/C % with L1210 leukemia (L1210, 1.9 mg/kg ip on Day 1) is reported as 152%; in the series with L1210 leukemia (L1210, 2.9 mg/kg ip on Day 1), 152%; in the series with L1210 leukemia (L1210, 4.4 mg/kg ip on Day 1) it was 170%. Further, in the series with L1210 leukemia (L1210, 4.4 mg/kg ip on Day 1), the LTS is on record as 1/10.

Consider `CC1OC(OC2CC(O)(C(=O)CO)Cc3c(O)c4c(c(O)c32)C(=O)c2ccccc2C4=O)CC(N)C1O` (stereo not shown) [4-demethoxyadriamycin], for which the “Activity relative to adriamycin (inhibition of colony forming ability)” value in the series with HeLa cells (HeLa cells in vitro, from Table 1) is “about one hundred times more active than adriamycin”. Besides, the IC50 in the series with HeLa cells (HeLa cells, 2 hrs. exposure) was 1.5 ng/mL (≈ 0.00292 µM); in the series on HeLa cells (HeLa cells, 8 hrs. exposure), 0.34 ng/mL (≈ 0.000662 µM); with HeLa cells (HeLa cells, 24 hrs. exposure), 0.14 ng/mL (≈ 0.000273 µM). Further, the T/C % with L 1210 leukemia (L 1210, 0.25 mg/kg ip on Day 1) came to 155%; in the series with L 1210 leukemia (L 1210, 0.5 mg/kg ip on Day 1), 166%; in the series on L 1210 leukemia (L 1210, 1 mg/kg ip on Day 1) it was 133%; with Gross leukemia (0.35 mg/kg iv on Days 1, 2, 3), 228%; in the series on Gross leukemia (0.45 mg/kg iv on Days 1, 2, 3), 214%; with Gross leukemia (0.6 mg/kg iv on Days 1, 2, 3), 157%. The T/C % in the series on P 388 leukemia (P 388, 0.25 mg/kg ip on Day 1) was determined as 168%; in the series on P 388 leukemia (P 388, 0.5 mg/kg ip on Day 1), 195%; in the series with P 388 leukemia (P 388, 1 mg/kg ip on Day 1), 209%. In addition, the Tox in the series on L 1210 leukemia (L 1210, 1 mg/kg ip on Day 1) is listed as 10/10; in the series on Gross leukemia (0.35 mg/kg iv on Days 1, 2, 3) it was 1/10; with Gross leukemia (0.45 mg/kg iv on Days 1, 2, 3) it was 1/10; with Gross leukemia (0.6 mg/kg iv on Days 1, 2, 3), 8/10; in the series with P 388 leukemia (P 388, 1 mg/kg ip on Day 1) it was 2/10. Moreover, the “LTS (long term survivors)” value in the series on Sarcoma 180 ascites (0.25 mg/kg) is listed as 7/10; with Sarcoma 180 ascites (0.5 mg/kg) it was 6/10. Also, the results for the “T/C % (survival time as percentage of controls)” value in the series with Sarcoma 180 ascites (0.25 mg/kg), in the series with Sarcoma 180 ascites (0.5 mg/kg) and with Sarcoma 180 ascites (1.0 mg/kg) were “above 583%”, “above 583%” and 218%, respectively. Besides, the “TOX (toxic deaths)” value in the series with Sarcoma 180 ascites (1.0 mg/kg) is on record as 6/9. The “Activity relative to adriamycin” value in the series on Sarcoma 180 ascites (Sarcoma 180 ascites, from Table 2) is “at least ten times more active than adriamycin”.

Turning to `COc1cccc2c1C(=O)c1c(O)c3c(c(O)c1C2=O)C[C@@](O)(C(=O)CO)C[C@@H]3O[C@H]1C[C@H](N)[C@H](O)[C@H](C)O1` [Adriamycin], the IC50 with HeLa cells (HeLa, 2 h) was determined as 125 ng/mL (≈ 0.23 µM); with HeLa cells (HeLa, 8 h) it was 28 ng/mL (≈ 0.0515 µM); in the series with HeLa cells (HeLa, 24 h), 12.5 ng/mL (≈ 0.023 µM). Also, the T/C % is recorded as 155% in the series with L 1210 leukemia (L 1210, 2.5 mg/kg ip on Day 1); 166% with L 1210 leukemia (L 1210, 5 mg/kg ip on Day 1); 155% in the series on L 1210 leukemia (L1210, 10 mg/kg ip on Day 1); 164% with Gross leukemia (3.5 mg/kg iv on Days 1, 2, 3); 186% with Gross leukemia (4.4 mg/kg iv on Days 1, 2, 3); 214% with Gross leukemia (6.0 mg/kg iv on Days 1, 2, 3). In addition, the T/C % worked out at 141% in the series on L1210 leukemia (L1210, 2.9 mg/kg ip on Day 1); 152% with L1210 leukemia (L1210, 4.4 mg/kg ip on Day 1); 158% in the series on L1210 leukemia (L1210, 6.6 mg/kg ip on Day 1); 164% in the series with L1210 leukemia (L1210, 10 mg/kg ip on Day 1); 173% with P 388 leukemia (P 388, 2.5 mg/kg ip on Day 1); 218% in the series with P 388 leukemia (P 388, 5 mg/kg ip on Day 1). In the series on P 388 leukemia (P 388, 10 mg/kg ip on Day 1), this molecule showed a T/C % of 230%. Moreover, the Tox with L 1210 leukemia (L 1210, 5 mg/kg ip on Day 1) is listed as 1/10; with L 1210 leukemia (L1210, 10 mg/kg ip on Day 1), 4/10; in the series with Gross leukemia (6.0 mg/kg iv on Days 1, 2, 3), 3/10; with P 388 leukemia (P 388, 10 mg/kg ip on Day 1), 1/10. The “LTS (long term survivors)” value is given as 7/10 in the series with Sarcoma 180 ascites (2.5 mg/kg) and 2/10 in the series on Sarcoma 180 ascites (5.0 mg/kg). Further, the “T/C % (survival time as percentage of controls)” value is listed as “above 583%” in the series on Sarcoma 180 ascites (2.5 mg/kg), 211% in the series on Sarcoma 180 ascites (5.0 mg/kg) and 163% in the series on Sarcoma 180 ascites (10.0 mg/kg). In addition, the “TOX (toxic deaths)” value with Sarcoma 180 ascites (5.0 mg/kg) was 3/9; with Sarcoma 180 ascites (10.0 mg/kg), 4/10. Also, the LTS in the series on L1210 leukemia (L1210, 4.4 mg/kg ip on Day 1) is 1/10; with L1210 leukemia (L1210, 10 mg/kg ip on Day 1), 1/10.
